Test results: patent publication US20090291066A1, “COMPOSITION AND METHOD OF TREATING FACIAL SKIN DEFECT” (priority 2008, published 2009)

Tests used:
facial preadipocytes = assay: Differentiation of human primary facial preadipocytes (lipid droplet formation, oil red O); type: cell-based; conditions: cell source not given
Description: Human primary preadipocytes from facial and abdominal skin samples, obtained with informed consent, were isolated and cultured following a published procedure (Crandall et al, Endocrinology 140:154-8, 1999). Briefly, samples from abdominal or facial operations were subjected to enzymatic digestion in Krebs-Ringer-bicarbonate buffer (pH 7.4) containing 6 mM glucose and 2 mg/mL collagenase. After this initial enzymatic digestion, the content of the flask was passed through a sterile, 230-micron stainless steel tissue sieve (Cellector, Bellco Glass Inc., Vineland, N.J.) into a 50-mL sterile, plastic test tube. […]
All differentiation agents (IBMX, dexamethasone, insulin, and rosiglitazone) were added to the culture media 24 hours after the cells were seeded. […] Subsequently, the cultures were incubated with oil red O (a dye that binds to neutral lipids); the dye was then extracted and quantified by spectrophotometry. […]
Human primary preadipocytes were isolated and cultured as described in Example 2. […] Subsequently, the cultures were incubated with oil red O (a dye that binds to neutral lipids); the dye was then extracted and quantified by spectrophotometry. […]

serum proteins = conditions: in vivo; cited from earlier work

In the case of `CCCCC/C=C\C/C=C\CCCCCCCC(=O)O` [Linoleic acid, linoleic acid], the adipogenesis of preadipocytes (facial preadipocytes; added in the media at 5-50 μM in addition to IBMX, insulin and dexamethasone) is reported as “can enhance adipogenesis of preadipocytes” and the “effect on the differentiation process” value (facial preadipocytes; alone, without IBMX and dexamethasone) is reported as “could not affect the differentiation process”.

For `CN(CCOc1ccc(CC2SC(=O)NC2=O)cc1)c1ccccn1` (stereo not drawn) [Rosiglitazone, rosiglitazone], the “bound to serum proteins” value (serum proteins) is listed as 99.8%.
